Measurements taken from PubChem BioAssay AID256 (DTP/NCI, 2004).
Toxic doses and inconclusive results are not listed. How the source made its calls: active means survival T/C of 150% or more; inactive means T/C below 125% in these data.

Tested on: CD2F1 mice, L1210 leukemia ip, survival T/C
Test: NCI In Vivo Anticancer Drug Screen. Data for tumor model L1210 Leukemia (intraperitoneal) in CD2F1 (CDF1) mice
Conditions: higher = longer survival
How it was run: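 Transplantable tumor in mice; compound-treated vs vehicle-treated groups. Read-out = treated/control ratio of the measured endpoint.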

[1] = endpoint: mean survival time, dose: 100.0 mg/kg/injection, schedule: Q04DX003 (ip), vehicle: saline with Tween-80
[2] = endpoint: mean survival time, dose: 200.0 mg/kg/injection, schedule: Q04DX003 (ip), vehicle: saline with Tween-80
[3] = endpoint: mean survival time, dose: 400.0 mg/kg/injection, schedule: Q04DX003 (ip), vehicle: saline with Tween-80

Measured: T/C

Oc1ccccc1N=Cc1ccccc1
inactive: endpoint: mean survival time, dose: 100.0 mg/kg/injection, schedule: Q04DX003 (ip), vehicle: saline 102 % of control | endpoint: mean survival time, dose: 200.0 mg/kg/injection, schedule: Q04DX003 (ip), vehicle: saline 100 % of control | endpoint: mean survival time, dose: 400.0 mg/kg/injection, schedule: Q04DX003 (ip), vehicle: saline 101 % of control

Cc1ccc([N+](=O)[O-])cc1NC(=O)COc1cc(Cl)c(Cl)cc1Cl
inactive: [1] 110 % of control | [2] 90 % of control | [3] 90 % of control

CN=NCCO
inactive: endpoint: mean survival time, dose: 25.0 mg/kg/injection, schedule: Q01DX009 (ip), vehicle: saline 104 % of control | endpoint: mean survival time, dose: 50.0 mg/kg/injection, schedule: Q01DX009 (ip), vehicle: saline 96 % of control | endpoint: mean survival time, dose: 100.0 mg/kg/injection, schedule: Q01DX001 (ip), vehicle: saline 94 % of control | endpoint: mean survival time, dose: 100.0 mg/kg/injection, schedule: Q01DX009 (ip), vehicle: saline 100 % of control | endpoint: mean survival time, dose: 200.0 mg/kg/injection, schedule: Q01DX001 (ip), vehicle: saline 94 % of control

O=C(CN1CCOCC1)Nc1nc(-c2ccc(Cl)cc2)cs1
inactive: endpoint: median survival time, dose: 12.5 mg/kg/injection, schedule: Q01DX009 (ip), vehicle: saline with Tween-80 102 % of control | endpoint: median survival time, dose: 25.0 mg/kg/injection, schedule: Q01DX009 (ip), vehicle: saline with Tween-80 98 % of control | endpoint: median survival time, dose: 50.0 mg/kg/injection, schedule: Q01DX009 (ip), vehicle: saline with Tween-80 98 % of control | endpoint: median survival time, dose: 100.0 mg/kg/injection, schedule: Q01DX009 (ip), vehicle: saline with Tween-80 105 % of control | endpoint: median survival time, dose: 200.0 mg/kg/injection, schedule: Q01DX009 (ip), vehicle: saline with Tween-80 93 % of control

OCC1OC(c2cccs2)C(O)C1O (configuration not stated)
inactive: endpoint: median survival time, dose: 12.5 mg/kg/injection, schedule: Q01DX005 (ip), vehicle: saline 102 % of control | endpoint: median survival time, dose: 25.0 mg/kg/injection, schedule: Q01DX005 (ip), vehicle: saline 98 % of control | endpoint: median survival time, dose: 50.0 mg/kg/injection, schedule: Q01DX005 (ip), vehicle: saline 92 % of control | endpoint: median survival time, dose: 100.0 mg/kg/injection, schedule: Q01DX005 (ip), vehicle: saline 98 % of control | endpoint: median survival time, dose: 200.0 mg/kg/injection, schedule: Q01DX005 (ip), vehicle: saline 106 % of control

Cc1nc2ccc(Cl)cc2c(=O)o1
inactive: endpoint: mean survival time, dose: 100.0 mg/kg/injection, schedule: Q01DX009 (ip), vehicle: saline with Tween-80 103 % of control | [1] 96 % of control | endpoint: mean survival time, dose: 200.0 mg/kg/injection, schedule: Q01DX009 (ip), vehicle: saline with Tween-80 103 % of control | [2] 93 % of control | endpoint: mean survival time, dose: 400.0 mg/kg/injection, schedule: Q01DX009 (ip), vehicle: saline with Tween-80 96 % of control | [3] 93 % of control

COC(=O)NC1C(C)OC(OC2C/C=C(/C)C3C=CC4C(OC5CC(OC6CC(O)C(OC7CC(O)C(OC)C(C)O7)C(C)O6)C(O)C(C)O5)C(C)CC(C)C4C3(C)/C(O)=C3\C(=O)OC4(CC(C)C(CO)=CC4/C=C\2C)C3=O)CC1(C)[N+](=O)[O-] (configuration not stated)
inactive: endpoint: median survival time, dose: 12.5 mg/kg/injection, schedule: Q01DX009 (ip), vehicle: Klucel (hydroxypropylcellulose) (HPC) 102 % of control | endpoint: median survival time, dose: 25.0 mg/kg/injection, schedule: Q01DX009 (ip), vehicle: Klucel (hydroxypropylcellulose) (HPC) 109 % of control | endpoint: median survival time, dose: 50.0 mg/kg/injection, schedule: Q01DX009 (ip), vehicle: Klucel (hydroxypropylcellulose) (HPC) 102 % of control | endpoint: median survival time, dose: 100.0 mg/kg/injection, schedule: Q01DX009 (ip), vehicle: Klucel (hydroxypropylcellulose) (HPC) 103 % of control

O=C1c2ccccc2C(=O)N1Cl
inactive: endpoint: mean survival time, dose: 50.0 mg/kg/injection, schedule: Q01DX009 (ip), vehicle: Klucel (hydroxypropylcellulose) (HPC) 96 % of control | endpoint: mean survival time, dose: 50.0 mg/kg/injection, schedule: Q04DX003 (ip), vehicle: other 100 % of control | endpoint: mean survival time, dose: 100.0 mg/kg/injection, schedule: Q01DX009 (ip), vehicle: Klucel (hydroxypropylcellulose) (HPC) 89 % of control | endpoint: mean survival time, dose: 100.0 mg/kg/injection, schedule: Q04DX003 (ip), vehicle: other 104 % of control | endpoint: mean survival time, dose: 200.0 mg/kg/injection, schedule: Q01DX009 (ip), vehicle: Klucel (hydroxypropylcellulose) (HPC) 93 % of control | endpoint: mean survival time, dose: 200.0 mg/kg/injection, schedule: Q04DX003 (ip), vehicle: other 110 % of control
